The source of these data is ChEMBL document CHEMBL4184249, “Structural development of tetrachlorophthalimides as liver X receptor β (LXRβ)-selective agonists with improved aqueous solubility” (Bioorg Med Chem Lett, 2018).

Active and inactive are the calls of the source. The calls are words filed in the database; no cut-off is given here.

Holding throughout (type): cell-based
Experiment [1] concerns the target T1, Peroxisome proliferator-activated receptor gamma (Homo sapiens) (UniProt P37231).
T1 sequence (whole entry): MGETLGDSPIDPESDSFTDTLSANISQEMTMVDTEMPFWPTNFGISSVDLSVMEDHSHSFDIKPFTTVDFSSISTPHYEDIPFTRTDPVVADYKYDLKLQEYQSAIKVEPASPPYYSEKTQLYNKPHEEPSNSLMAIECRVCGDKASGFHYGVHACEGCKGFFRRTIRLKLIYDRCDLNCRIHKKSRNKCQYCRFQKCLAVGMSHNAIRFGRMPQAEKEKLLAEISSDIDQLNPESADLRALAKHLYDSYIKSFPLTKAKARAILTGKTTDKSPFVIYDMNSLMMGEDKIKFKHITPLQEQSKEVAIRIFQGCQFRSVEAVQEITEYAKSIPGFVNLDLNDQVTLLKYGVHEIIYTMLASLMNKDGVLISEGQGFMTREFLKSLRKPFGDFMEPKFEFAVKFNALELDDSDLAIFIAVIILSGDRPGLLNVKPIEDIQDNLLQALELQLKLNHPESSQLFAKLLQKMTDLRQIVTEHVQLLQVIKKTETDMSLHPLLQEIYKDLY
Kind of experiment: Agonist activity at GAL4-tagged PPARgamma (unknown origin) expressed in HEK293 cells co-expressing CMX-beta-galactosidase at 0.3 to 30 uM incubated for 16 hrs by luciferase reporter gene assay. On the technique in general: A reporter such as luciferase makes a cellular process visible.

Experiment [2] addresses T2, Retinoic acid receptor gamma (Homo sapiens) (UniProt P13631).
T2 sequence (whole entry): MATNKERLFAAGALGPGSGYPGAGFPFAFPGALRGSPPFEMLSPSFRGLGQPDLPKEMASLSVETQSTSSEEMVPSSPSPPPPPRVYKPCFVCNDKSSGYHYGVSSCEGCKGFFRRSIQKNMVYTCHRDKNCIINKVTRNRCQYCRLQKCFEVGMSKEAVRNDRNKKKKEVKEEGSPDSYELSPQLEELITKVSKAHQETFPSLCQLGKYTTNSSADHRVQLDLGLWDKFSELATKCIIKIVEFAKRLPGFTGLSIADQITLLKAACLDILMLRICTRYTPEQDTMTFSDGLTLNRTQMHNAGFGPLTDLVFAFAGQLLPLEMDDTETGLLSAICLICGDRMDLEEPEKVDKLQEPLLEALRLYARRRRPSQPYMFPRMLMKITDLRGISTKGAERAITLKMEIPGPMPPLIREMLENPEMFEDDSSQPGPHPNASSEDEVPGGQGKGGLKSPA
Kind of experiment: Agonist activity at GAL4-tagged RARgamma (unknown origin) expressed in HEK293 cells co-expressing CMX-beta-galactosidase at 0.3 to 30 uM incubated for 16 hrs by luciferase reporter gene assay.

Experiment [3] addresses T3, Oxysterols receptor LXR-beta (Homo sapiens) (UniProt P55055).
T3 sequence (whole entry): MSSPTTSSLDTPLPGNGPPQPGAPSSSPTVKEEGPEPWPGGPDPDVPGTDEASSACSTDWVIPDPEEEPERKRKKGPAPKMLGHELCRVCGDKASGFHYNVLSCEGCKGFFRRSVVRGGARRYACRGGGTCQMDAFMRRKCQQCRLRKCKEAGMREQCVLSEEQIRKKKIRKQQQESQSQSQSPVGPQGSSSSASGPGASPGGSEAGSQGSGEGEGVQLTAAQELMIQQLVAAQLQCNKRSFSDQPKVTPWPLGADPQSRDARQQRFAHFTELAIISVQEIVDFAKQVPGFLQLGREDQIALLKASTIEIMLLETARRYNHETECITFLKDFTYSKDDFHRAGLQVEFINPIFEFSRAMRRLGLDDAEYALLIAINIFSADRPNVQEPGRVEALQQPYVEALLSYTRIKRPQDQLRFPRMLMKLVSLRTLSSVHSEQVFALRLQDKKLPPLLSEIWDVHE
Kind of experiment: Agonist activity at LXRbeta in human THP1 cells assessed as increase in ABCA1 mRNA expression at 0.1 uM by real-time quantitative RT-PCR method.

`O=C1c2c(Cl)c(Cl)c(Cl)c(Cl)c2C(=O)N1c1ccccc1/C=C/c1cccs1`: the result in experiment [1] and in experiment [2] was inactive. Also, in experiment [3], the outcome was Active.
